Assay results published in patent US20240279240A1, “HETEROCYCLIC DERIVATIVES AS JANUS KINASE INHIBITORS” (CHIESI FARMACEUTICI S.P.A., priority 2021, published 2024).

What was measured:
[1] = biological target: T1, JAK 3 (Homo sapiens, UniProt P52333); experiment: Biochemical potency on JAK3, TR-FRET LANCE Ultra kinase assay (examples 1-99); conditions: ATP at Km (0.2 μM), read-out: JAK3 inhibitory activity (pIC50 class) (converted)
T1 sequence (P52333 1-1124): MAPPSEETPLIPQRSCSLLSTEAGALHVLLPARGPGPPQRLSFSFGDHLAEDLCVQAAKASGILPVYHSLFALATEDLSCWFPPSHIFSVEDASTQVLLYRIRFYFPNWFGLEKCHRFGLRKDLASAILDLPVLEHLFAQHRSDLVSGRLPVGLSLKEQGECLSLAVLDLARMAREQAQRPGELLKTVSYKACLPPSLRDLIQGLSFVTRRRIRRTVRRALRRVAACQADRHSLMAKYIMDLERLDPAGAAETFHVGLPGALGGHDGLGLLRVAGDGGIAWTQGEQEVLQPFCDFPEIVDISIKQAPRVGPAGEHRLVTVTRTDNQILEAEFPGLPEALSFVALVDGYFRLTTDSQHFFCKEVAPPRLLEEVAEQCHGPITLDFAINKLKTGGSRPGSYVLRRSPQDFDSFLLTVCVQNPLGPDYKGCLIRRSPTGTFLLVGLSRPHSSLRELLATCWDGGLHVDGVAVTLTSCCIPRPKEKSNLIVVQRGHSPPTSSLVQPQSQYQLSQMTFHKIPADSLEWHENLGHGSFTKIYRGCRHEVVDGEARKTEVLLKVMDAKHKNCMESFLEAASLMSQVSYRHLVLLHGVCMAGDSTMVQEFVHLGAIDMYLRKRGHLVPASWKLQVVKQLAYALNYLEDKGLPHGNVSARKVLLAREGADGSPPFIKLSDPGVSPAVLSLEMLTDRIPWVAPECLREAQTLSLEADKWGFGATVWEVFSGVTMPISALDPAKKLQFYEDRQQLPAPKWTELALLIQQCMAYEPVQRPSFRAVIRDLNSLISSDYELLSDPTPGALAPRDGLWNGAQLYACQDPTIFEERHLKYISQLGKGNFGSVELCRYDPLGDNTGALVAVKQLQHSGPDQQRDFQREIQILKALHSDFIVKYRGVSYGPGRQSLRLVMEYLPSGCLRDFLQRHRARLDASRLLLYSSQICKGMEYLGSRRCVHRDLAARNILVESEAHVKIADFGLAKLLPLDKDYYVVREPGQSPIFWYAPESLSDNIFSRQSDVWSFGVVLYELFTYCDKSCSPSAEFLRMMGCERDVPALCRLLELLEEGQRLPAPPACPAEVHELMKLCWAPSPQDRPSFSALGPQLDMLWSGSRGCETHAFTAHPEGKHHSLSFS
Protocol: (§1) The objective of this study was to assess the capability of compounds to inhibit all 4 JAK isoforms activity in a cell-free environment. Assay for JAK 1, JAK 2, JAK 3 and TYK2 were performed by Time-resolved fluorescence resonance energy transfer (TR-FRET) technology. It consists in the interaction of two labelled binding partners detected by the energy transfer from an excited donor to an acceptor dye and measurement of light emission by the acceptor dye. LANCE Ultra kinase assay was used. In presence of JAK 1, JAK 2, JAK 3 and TYK2 kinases and ATP (corresponding to Km), the ULight peptide substrate (LANCE Ulight-JAK-1 (Tyr1023) Peptide, Perkin Elmer, TRF0121) is phosphorylated. It is then captured by Eu-anti-phospho-substrate antibody (LANCE Eu-W1024 Anti-phosphotyrosine (PT66), Perkin Elmer, AD0069), which bring the Eu-chelate donor and ULight acceptor dyes into close proximity. Upon excitation at 320 nm, the Eu-chelate transfers its energy to the ULight dye, resulting in a fluorescent light emission at 665 nm.
(§2) Serial dilutions of compounds in pure DMSO are prepared from 10 mM DMSO stock solutions. Compounds were tested in 384-well plate for 11 consecutive 5-fold dilutions starting from 20 μM highest concentration (20 μM-[…]). 200 nL of compound were transferred from mother plate to test plate by using Mosquito (TTP labtech). Assay was performed in 384-well Perkin Elmer test plate in 20 μL assay volume (kinase reaction) and 40 μL total volume (stopping reagent and antibody detection reagents). In 10 μL of substrate solution (peptide+ATP) 30/50/20/10 nM of peptide and 20/0.7/0.2/12 μM of ATP were added for JAK 1, JAK 2, JAK 3 and TYK2 respectively. 10 μL of enzyme solution was added to kinase reaction at these concentrations: 0.15/0.083/0.025/0.144 ng/μL of JAK 1, JAK 2, JAK 3 and TYK2 respectively. After shaking and 1.5 h of incubation at r.t., 20 μL of Stop (10 μL EDTA) and Detection mixture (10 μL Europium-anti-phospho antibody, final: 0.5 nM) were added. Reading was performed after 1 h of incubation on a EnVision 2104 reader (Perkin Elmer).
(§3) Calculation of IC50 data, curves and QC analysis was performed by using Excel tool and GraphPadPrism software, v9. Briefly, individual concentration-effect curves are generated by plotting the logarithm of the tested concentration of tested compounds (X) vs. corresponding percent inhibition values (Y) using least squares (ordinary) fit. Best fit IC50 values are calculated using Log(inhibitor) vs. normalized response—Variable slope equation, where Y=100/(1+10^((Log IC50−X)*HillSlope)). QC criteria parameters (Z′, S:B, R2, HillSlope) were checked for every IC50 curve. Calculation of IC50 data, curves and QC analysis were made using Excel tools and GraphPadPrism software. QC criteria parameters: Z′≥0.5, Hill Slope range 0.5 to 5, S:B>2.

[2] = biological target: TYK2 (Homo sapiens, UniProt P29597); experiment: Biochemical potency on Tyk2, TR-FRET LANCE Ultra kinase assay (examples 1-99); conditions: ATP at Km (12 μM), read-out: Tyk2 inhibitory activity (pIC50 class) (converted)
TYK2, sequence (P29597 whole entry): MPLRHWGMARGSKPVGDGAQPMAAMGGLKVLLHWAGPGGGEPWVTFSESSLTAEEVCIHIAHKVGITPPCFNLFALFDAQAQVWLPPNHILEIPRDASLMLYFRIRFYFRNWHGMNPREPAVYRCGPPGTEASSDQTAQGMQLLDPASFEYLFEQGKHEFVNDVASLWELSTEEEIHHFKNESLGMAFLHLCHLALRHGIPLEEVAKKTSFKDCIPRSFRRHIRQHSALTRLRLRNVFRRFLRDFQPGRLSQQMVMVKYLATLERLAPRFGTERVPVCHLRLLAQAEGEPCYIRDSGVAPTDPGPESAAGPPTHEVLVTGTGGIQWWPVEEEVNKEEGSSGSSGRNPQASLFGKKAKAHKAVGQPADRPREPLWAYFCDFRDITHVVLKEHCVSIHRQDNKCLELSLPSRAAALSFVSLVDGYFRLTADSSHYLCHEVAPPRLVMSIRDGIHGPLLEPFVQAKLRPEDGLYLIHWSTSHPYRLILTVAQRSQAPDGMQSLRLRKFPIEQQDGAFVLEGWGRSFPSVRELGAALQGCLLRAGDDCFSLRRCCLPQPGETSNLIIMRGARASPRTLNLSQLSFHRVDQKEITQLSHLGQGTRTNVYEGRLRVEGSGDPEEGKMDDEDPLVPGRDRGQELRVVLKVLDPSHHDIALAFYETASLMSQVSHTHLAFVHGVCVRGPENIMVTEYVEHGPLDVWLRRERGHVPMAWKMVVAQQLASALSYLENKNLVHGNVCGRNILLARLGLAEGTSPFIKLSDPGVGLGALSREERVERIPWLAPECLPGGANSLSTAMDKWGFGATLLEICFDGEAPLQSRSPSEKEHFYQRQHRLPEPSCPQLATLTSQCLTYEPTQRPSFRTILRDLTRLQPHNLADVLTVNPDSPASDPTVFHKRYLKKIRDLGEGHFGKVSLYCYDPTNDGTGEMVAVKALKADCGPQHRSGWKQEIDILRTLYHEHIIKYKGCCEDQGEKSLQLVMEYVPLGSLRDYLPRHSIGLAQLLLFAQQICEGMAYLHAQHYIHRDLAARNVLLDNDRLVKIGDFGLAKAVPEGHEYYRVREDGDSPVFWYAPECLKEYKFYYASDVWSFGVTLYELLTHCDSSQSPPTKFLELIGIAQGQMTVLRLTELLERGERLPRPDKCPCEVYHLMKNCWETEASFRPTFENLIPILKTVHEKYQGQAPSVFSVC
Protocol: as §1, §2, §3

[3] = biological target: JAK 2 (Homo sapiens, UniProt O60674); experiment: Biochemical potency on JAK2, TR-FRET LANCE Ultra kinase assay (examples 1-99); conditions: ATP at Km (0.7 μM), read-out: JAK2 inhibitory activity (pIC50 class) (converted)
JAK 2, sequence (O60674 whole entry): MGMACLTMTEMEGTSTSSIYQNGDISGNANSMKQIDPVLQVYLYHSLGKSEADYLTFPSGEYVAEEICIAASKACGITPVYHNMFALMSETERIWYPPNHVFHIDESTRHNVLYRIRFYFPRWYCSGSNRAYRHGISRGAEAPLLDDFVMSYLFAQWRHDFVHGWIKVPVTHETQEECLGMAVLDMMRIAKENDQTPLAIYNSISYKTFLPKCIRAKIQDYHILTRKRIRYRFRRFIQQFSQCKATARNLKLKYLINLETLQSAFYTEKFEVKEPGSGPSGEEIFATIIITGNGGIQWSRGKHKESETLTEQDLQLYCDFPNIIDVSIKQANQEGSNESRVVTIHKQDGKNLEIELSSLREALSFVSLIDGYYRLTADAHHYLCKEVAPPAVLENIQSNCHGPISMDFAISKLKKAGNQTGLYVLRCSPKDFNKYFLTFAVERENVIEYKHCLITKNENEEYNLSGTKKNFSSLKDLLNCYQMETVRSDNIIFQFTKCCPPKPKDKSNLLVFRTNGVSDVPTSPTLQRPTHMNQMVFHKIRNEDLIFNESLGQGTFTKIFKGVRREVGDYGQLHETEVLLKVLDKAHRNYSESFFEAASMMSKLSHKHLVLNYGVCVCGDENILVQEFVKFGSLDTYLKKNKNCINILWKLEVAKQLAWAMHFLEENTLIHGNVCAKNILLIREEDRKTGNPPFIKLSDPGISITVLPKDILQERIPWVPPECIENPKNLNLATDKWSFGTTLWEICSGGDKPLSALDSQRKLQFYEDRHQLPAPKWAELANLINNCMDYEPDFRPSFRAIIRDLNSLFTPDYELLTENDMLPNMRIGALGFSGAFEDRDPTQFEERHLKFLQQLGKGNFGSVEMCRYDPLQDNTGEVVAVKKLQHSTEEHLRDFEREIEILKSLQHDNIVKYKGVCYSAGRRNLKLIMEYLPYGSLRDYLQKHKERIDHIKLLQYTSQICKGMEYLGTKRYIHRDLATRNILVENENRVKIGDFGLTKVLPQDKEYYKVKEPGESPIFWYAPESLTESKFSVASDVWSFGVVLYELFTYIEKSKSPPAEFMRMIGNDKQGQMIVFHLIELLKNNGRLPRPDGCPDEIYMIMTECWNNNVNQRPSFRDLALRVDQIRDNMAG
Protocol: as §1, §2, §3

[4] = biological target: JAK 1 (Homo sapiens, UniProt P23458); experiment: Biochemical potency on JAK1, TR-FRET LANCE Ultra kinase assay (examples 1-99); conditions: ATP at Km (20 μM), read-out: JAK1 inhibitory activity (pIC50 class) (converted)
JAK 1, sequence (P23458 whole entry): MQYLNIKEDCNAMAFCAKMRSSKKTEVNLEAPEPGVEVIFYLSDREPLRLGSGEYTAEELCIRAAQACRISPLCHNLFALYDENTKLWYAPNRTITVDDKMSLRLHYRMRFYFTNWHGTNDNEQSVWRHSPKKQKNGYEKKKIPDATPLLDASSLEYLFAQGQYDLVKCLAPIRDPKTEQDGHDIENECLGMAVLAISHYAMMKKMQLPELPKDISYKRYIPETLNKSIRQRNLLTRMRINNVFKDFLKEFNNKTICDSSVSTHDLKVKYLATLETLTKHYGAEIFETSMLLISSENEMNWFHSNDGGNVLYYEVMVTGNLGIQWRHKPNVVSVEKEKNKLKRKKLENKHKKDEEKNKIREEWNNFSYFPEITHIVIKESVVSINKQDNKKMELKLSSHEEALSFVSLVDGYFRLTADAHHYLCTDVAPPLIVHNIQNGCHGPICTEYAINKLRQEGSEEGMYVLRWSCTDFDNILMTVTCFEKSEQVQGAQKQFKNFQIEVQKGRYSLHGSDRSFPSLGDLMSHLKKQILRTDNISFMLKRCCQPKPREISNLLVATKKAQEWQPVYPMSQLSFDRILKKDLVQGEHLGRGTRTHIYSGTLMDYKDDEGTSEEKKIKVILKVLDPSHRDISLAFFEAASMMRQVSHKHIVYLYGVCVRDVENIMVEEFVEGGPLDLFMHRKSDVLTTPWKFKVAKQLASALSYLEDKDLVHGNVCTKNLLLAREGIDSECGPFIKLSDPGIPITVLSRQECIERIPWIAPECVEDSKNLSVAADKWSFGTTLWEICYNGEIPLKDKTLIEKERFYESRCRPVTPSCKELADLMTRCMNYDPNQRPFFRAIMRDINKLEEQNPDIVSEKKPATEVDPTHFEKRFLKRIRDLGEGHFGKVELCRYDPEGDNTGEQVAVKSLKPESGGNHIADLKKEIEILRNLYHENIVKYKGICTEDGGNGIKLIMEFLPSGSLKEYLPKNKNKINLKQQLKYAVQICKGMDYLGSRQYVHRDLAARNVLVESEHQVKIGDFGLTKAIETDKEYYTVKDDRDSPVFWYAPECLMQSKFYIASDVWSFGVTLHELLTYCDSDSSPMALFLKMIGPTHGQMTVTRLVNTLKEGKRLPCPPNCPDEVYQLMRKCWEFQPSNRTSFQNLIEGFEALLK
Protocol: as §1, §2, §3

Row | SMILES | IC50 [1] | IC50 [2] | IC50 [3] | IC50 [4]
1 | COc1ccc(S(=O)(=O)NCCN2CCOCC2)cc1-n1nc(C)c2cnc(-c3cnn4cccnc34)cc21 [Example 19, 4-methoxy-3-(3-methyl-6-(pyrazolo[1,5-a]pyrimidin-3-yl)-1H-pyrazolo[4,3-c]pyridin-1-yl)-N-(2-morpholinoethyl)benzenesulfonamide] | > 50.1 nM | > 50.1 nM | 5.01 to 50.1 nM | 5.01 to 50.1 nM
2 | COc1ccc(C(F)F)cc1-n1nc(NCCN(C)C)c2cnc(Nc3ncc[nH]c3=O)cc21 [Example 98, 3-((1-(5-(difluoromethyl)-2-methoxyphenyl)-3-((2-(dimethylamino)ethyl)amino)-1H-pyrazolo[4,3-c]pyridin-6-yl)amino)pyrazin-2(1H)-one] | 5.01 to 50.1 nM | 5.01 to 50.1 nM | 5.01 to 50.1 nM | 5.01 to 50.1 nM
3 | COc1ccc(Cl)cc1-n1nc(NC(C)=O)c2cnc(-c3cnn4cccnc34)cc21 [Example 40, N-(1-(5-chloro-2-methoxyphenyl)-6-(pyrazolo[1,5-a]pyrimidin-3-yl)-1H-pyrazolo[4,3-c]pyridin-3-yl)acetamide] | ≤ 5.01 nM | 5.01 to 50.1 nM | ≤ 5.01 nM | ≤ 5.01 nM
4 | Cc1nn(-c2cc(S(=O)(=O)CCN3CCCCC3)ccc2OC(F)F)c2cc(-c3cnn4cccnc34)ncc12 [Example 23, 1-(2-(difluoromethoxy)-5-((2-(piperidin-1-yl)ethyl)sulfonyl)phenyl)-3-methyl-6-(pyrazolo[1,5-a]pyrimidin-3-yl)-1H-pyrazolo[4,3-c]pyridine] | 5.01 to 50.1 nM | > 50.1 nM | 5.01 to 50.1 nM | 5.01 to 50.1 nM
5 | Cc1nn(-c2cc(SC3COC3)ccc2OC(F)F)c2cc(-c3cnn4cccnc34)ncc12 [Example 73, 1-(2-(difluoromethoxy)-5-(oxetan-3-ylthio)phenyl)-3-methyl-6-(pyrazolo[1,5-a]pyrimidin-3-yl)-1H-pyrazolo[4,3-c]pyridine] | ≤ 5.01 nM | 5.01 to 50.1 nM | ≤ 5.01 nM | ≤ 5.01 nM
6 | Cc1nn(-c2cc(S(=O)(=O)CCCN(C)C)ccc2OC(F)F)c2cc(-c3cnn4cccnc34)ncc12 [Example 21, 3-((4-(difluoromethoxy)-3-(3-methyl-6-(pyrazolo[1,5-a]pyrimidin-3-yl)-1H-pyrazolo[4,3-c]pyridin-1-yl)phenyl)sulfonyl)-N,N-dimethylpropan-1-amine] | 5.01 to 50.1 nM | > 50.1 nM | 5.01 to 50.1 nM | 5.01 to 50.1 nM
7 | COc1ccc(F)cc1-n1nc(NCCCN(C)C)c2cnc(Nc3ncc[nH]c3=O)cc21 [Example 97, 3-((3-((3-(dimethylamino)propyl)amino)-1-(5-fluoro-2-methoxyphenyl)-1H-pyrazolo[4,3-c]pyridin-6-yl)amino)pyrazin-2(1H)-one] | ≤ 5.01 nM | 5.01 to 50.1 nM | ≤ 5.01 nM | 5.01 to 50.1 nM
8 | CC(=O)N1CCC(Sc2ccc(OC(F)F)c(-n3nc(C)c4cnc(-c5cnn6cccnc56)cc43)c2)CC1 [Example 75, 1-(4-((4-(difluoromethoxy)-3-(3-methyl-6-(pyrazolo[1,5-a]pyrimidin-3-yl)-1H-pyrazolo[4,3-c]pyridin-1-yl)phenyl)thio)piperidin-1-yl)ethan-1-one] | 5.01 to 50.1 nM | > 50.1 nM | 5.01 to 50.1 nM | 5.01 to 50.1 nM
9 | Cc1nn(-c2cc(C#N)ccc2OC(F)F)c2cc(-c3cnn4cccnc34)ncc12 [Example 64, 4-(difluoromethoxy)-3-(3-methyl-6-(pyrazolo[1,5-a]pyrimidin-3-yl)-1H-pyrazolo[4,3-c]pyridin-1-yl)benzonitrile] | ≤ 5.01 nM | 5.01 to 50.1 nM | ≤ 5.01 nM | 5.01 to 50.1 nM
10 | Cc1nn(-c2cc(Br)ccc2OC(F)F)c2cc(-c3cnn4cccnc34)ncc12 [Example 63, 1-(5-bromo-2-(difluoromethoxy)phenyl)-3-methyl-6-(pyrazolo[1,5-a]pyrimidin-3-yl)-1H-pyrazolo[4,3-c]pyridine] | ≤ 5.01 nM | 5.01 to 50.1 nM | ≤ 5.01 nM | ≤ 5.01 nM
11 | OCc1nn(-c2cc(Cl)ccc2OC(F)F)c2cc(-c3cnn4cccnc34)ncc12 [Example 29, (1-(5-chloro-2-(difluoromethoxy)phenyl)-6-(pyrazolo[1,5-a]pyrimidin-3-yl)-1H-pyrazolo[4,3-c]pyridin-3-yl)methanol] | ≤ 5.01 nM | 5.01 to 50.1 nM | ≤ 5.01 nM | 5.01 to 50.1 nM
12 | COc1ccc(F)cc1-n1nc(C)c2cnc(Nc3ncc[nH]c3=O)cc21 [Example 90, 3-((1-(5-Fluoro-2-methoxyphenyl)-3-methyl-1H-pyrazolo[4,3-c]pyridin-6-yl)amino)pyrazin-2(1H)-one] | ≤ 5.01 nM | 5.01 to 50.1 nM | ≤ 5.01 nM | 5.01 to 50.1 nM
13 | CCCS(=O)(=O)c1ccc(OC)c(-n2nc(C)c3cnc(-c4cnn5cccnc45)cc32)c1 [Example 10, 1-(2-methoxy-5-(propylsulfonyl)phenyl)-3-methyl-6-(pyrazolo[1,5-a]pyrimidin-3-yl)-1H-pyrazolo[4,3-c]pyridine] | ≤ 5.01 nM | > 50.1 nM | 5.01 to 50.1 nM | 5.01 to 50.1 nM
14 | COc1cc(O)ccc1-n1nc(C)c2cnc(-c3cnn4cccnc34)cc21 [Example 27, 3-methoxy-4-(3-methyl-6-(pyrazolo[1,5-a]pyrimidin-3-yl)-1H-pyrazolo[4,3-c]pyridin-1-yl)phenol] | 5.01 to 50.1 nM | > 50.1 nM | ≤ 5.01 nM | 5.01 to 50.1 nM
15 | CNC(=O)CN(C)[C@H]1C[C@H](NC(=O)c2nn(-c3cc(Cl)ccc3OC)c3cc(-c4cnn5cccnc45)ncc23)C1 [Example 78, 1-(5-chloro-2-methoxyphenyl)-N-((1r,3r)-3-(methyl(2-(methylamino)-2-oxoethyl)amino)cyclobutyl)-6-(pyrazolo[1,5-a]pyrimidin-3-yl)-1H-pyrazolo[4,3-c]pyridine-3-carboxamide] | 5.01 to 50.1 nM | > 50.1 nM | 5.01 to 50.1 nM | 5.01 to 50.1 nM
